Laboratory results from patent US7799797B2, “Arylsulfonyl naphthalene derivatives and uses thereof” (Roche Palo Alto LLC, priority 2006, dated 2010).

Legend:
[1] = molecular target: T1, recombinant human 5-HT2A receptor (Homo sapiens, UniProt P28223); assay: Radioligand binding, [3H]Ketanserin competition in CHO-K1 cell membranes; conditions: [3H]Ketanserin displacement, pH 7.4, 32° C., read-out: pKi for 5-HT2A (converted)
T1 construct: expressed in transfected cells
Method: (§1) The binding activity of compounds of this invention in vitro was determined as follows. Duplicate determinations of 5-HT6 ligand affinity were made by competing for binding of [^3H]LSD in cell membranes derived from HEK293 cells stably expressing recombinant human 5-HT6 receptor. Duplicate determinations of 5-HT2A ligand affinity were made by competing for binding of [^3H]Ketanserin (3-(2-(4-(4-fluorobenzoyl)piperidinol)ethyl)-2,4(1H, 3H)-quinazolinedione) in cell membranes derived from CHO-K1 cells stably expressing recombinant human 5-HT2A receptor. Membranes were prepared from HEK 293 cell lines by the method described by Monsma et al., Molecular Pharmacology, Vol. 43 pp. 320-327 (1993), and from CHO-K1 cell lines as described by Bonhaus et al., Br J. Pharmacol. June; 115(4):622-8 (1995).
(§2) For estimation of affinity at the 5-HT6 receptor, all determinations were made in assay buffer containing 50 mM Tris-HCl, 10 mM MgSO4, 0.5 mM EDTA, 1 mM ascorbic acid, pH 7.4 at 37° C., in a 250 microliter reaction volume. […]
(§3) Assay tubes containing [^3H] […] LSD or [^3H]Ketanserin were determined as radioactive counts per minute using Packard TopCount.
(§4) Displacement of [^3H]LSD or [^3H]Ketanserin from the binding sites was quantified by fitting concentration-binding data to a 4-parameter logistic equation: […]

[2] = molecular target: T2, recombinant human 5-HT6 receptor (Homo sapiens, UniProt P50406); assay: Radioligand binding, [3H]LSD competition in HEK293 cell membranes; conditions: [3H]LSD displacement, pH 7.4, 37° C., read-out: pKi for 5-HT6 (converted)
T2 construct: expressed in transfected cells
Method: as §1, §2, §3, §4

T1 sequence (P28223 whole entry): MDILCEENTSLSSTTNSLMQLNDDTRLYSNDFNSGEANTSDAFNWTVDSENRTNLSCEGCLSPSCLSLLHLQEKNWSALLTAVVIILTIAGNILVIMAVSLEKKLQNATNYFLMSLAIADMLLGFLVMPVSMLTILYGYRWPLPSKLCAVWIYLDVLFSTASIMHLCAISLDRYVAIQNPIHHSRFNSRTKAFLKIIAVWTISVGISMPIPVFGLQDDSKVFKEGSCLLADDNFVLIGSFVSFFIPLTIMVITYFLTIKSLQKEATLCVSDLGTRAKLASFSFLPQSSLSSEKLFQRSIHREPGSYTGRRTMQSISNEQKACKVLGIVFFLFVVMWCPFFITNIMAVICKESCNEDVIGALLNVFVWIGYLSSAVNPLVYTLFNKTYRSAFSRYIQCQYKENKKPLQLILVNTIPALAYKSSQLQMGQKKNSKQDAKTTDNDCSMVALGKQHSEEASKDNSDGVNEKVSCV
T2 sequence (P50406 whole entry): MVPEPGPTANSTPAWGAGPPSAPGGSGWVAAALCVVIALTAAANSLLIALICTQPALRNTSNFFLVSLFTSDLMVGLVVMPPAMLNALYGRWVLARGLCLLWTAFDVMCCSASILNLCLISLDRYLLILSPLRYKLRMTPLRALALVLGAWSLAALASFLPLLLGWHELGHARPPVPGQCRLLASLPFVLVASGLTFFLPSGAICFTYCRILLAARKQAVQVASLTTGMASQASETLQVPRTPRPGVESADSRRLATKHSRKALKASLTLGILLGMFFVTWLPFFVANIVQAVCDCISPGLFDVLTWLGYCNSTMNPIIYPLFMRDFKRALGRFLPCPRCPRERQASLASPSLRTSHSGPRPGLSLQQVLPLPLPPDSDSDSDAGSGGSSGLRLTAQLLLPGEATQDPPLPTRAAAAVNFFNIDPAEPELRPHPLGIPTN

Row | Ki [1] [nM] | Ki [2] [nM] | SMILES
1 | ~5.01 | – | NCc1cccc2cc(S(=O)(=O)c3cccc(F)c3)ccc12 [Compound 2, C-[6-(3-Fluoro-benzenesulfonyl)-naphthalen-1-yl]-methylamine]
2 | – | ~0.447 | CNCc1cccc2cc(S(=O)(=O)c3ccccc3)ccc12 [Compound 1, (6-Benzenesulfonyl-naphthalen-1-ylmethyl)-methyl-amine]
